From paper PMC7723751 (Bioorganic chemistry, 2020)

Columns and labels:
Human sEH = target: T1, Human sEH (Homo sapiens, UniProt P34913); test: Human sEH inhibition assay; format: biochemical; conditions: sEH IC50, human sEH 1 nM, CMNPC 5 μM, pH 7.0, 30 °C
T1 sequence (P34913 1-555): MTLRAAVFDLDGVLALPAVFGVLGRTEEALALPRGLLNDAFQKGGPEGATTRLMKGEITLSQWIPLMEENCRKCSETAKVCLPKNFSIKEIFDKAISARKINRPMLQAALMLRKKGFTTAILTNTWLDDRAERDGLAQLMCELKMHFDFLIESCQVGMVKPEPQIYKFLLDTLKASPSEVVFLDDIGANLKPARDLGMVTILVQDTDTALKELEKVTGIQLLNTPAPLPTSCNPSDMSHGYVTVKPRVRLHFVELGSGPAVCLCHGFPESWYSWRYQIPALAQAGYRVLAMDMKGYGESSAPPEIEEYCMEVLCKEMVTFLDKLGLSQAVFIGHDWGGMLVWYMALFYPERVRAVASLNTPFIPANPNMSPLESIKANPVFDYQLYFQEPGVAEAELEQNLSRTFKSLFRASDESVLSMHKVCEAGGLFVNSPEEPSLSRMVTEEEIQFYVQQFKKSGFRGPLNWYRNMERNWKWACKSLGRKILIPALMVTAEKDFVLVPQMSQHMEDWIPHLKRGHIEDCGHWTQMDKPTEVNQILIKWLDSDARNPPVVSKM

human FAAH enzyme = target: T2, human FAAH enzyme (Homo sapiens, UniProt O00519); test: Human FAAH enzyme inhibition assay; format: biochemical
T2 sequence (O00519 1-579): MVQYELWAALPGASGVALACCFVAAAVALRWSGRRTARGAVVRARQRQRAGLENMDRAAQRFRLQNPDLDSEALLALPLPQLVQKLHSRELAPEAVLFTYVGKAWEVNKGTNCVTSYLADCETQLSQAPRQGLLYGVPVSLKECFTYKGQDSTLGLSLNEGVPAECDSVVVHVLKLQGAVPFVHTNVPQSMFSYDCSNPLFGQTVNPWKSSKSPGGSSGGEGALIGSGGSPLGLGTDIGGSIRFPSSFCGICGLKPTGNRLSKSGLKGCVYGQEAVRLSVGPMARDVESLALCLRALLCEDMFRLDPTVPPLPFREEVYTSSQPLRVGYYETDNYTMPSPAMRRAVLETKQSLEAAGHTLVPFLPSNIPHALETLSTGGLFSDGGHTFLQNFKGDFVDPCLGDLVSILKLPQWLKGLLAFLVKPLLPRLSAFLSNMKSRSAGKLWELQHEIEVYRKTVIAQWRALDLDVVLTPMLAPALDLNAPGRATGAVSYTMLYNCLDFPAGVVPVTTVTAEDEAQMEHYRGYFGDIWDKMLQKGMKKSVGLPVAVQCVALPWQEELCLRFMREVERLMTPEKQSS

O=C(Nc1ccc(-c2nc3ccccc3s2)cc1)C1CCN(S(=O)(=O)c2cccs2)CC1 [Compound 4-1, N-(4-(benzo[d]thiazol-2-yl)phenyl)-1-(thiophen-2-ylsulfonyl)piperidine-4-carboxamide]
IC50 (Human sEH): 420 nM | IC50 (human FAAH enzyme): 16 nM

O=C(Nc1ccc(-c2nc3ccccc3s2)cc1)C1CCN(S(=O)(=O)c2cc(Br)c(Cl)s2)CC1 [Compound 4-2, N-(4-(benzo[d]thiazol-2-yl)phenyl)-1-((4-bromo-5-chlorothiophen-2-yl)sulfonyl)piperidine-4-carboxamide]
IC50 (Human sEH): 5900 nM | IC50 (human FAAH enzyme): 2700 nM

O=C(Nc1ccc(-c2nc3ccccc3s2)cc1)C1CCN(S(=O)(=O)c2ccccc2)CC1 [Compound 4-3, N-(4-(benzo[d]thiazol-2-yl)phenyl)-1-(phenylsulfonyl)piperidine-4-carboxamide]
IC50 (Human sEH): 1100 nM | IC50 (human FAAH enzyme): 8.6 nM

O=C(Nc1ccc(-c2nc3ccccc3s2)cc1)C1CCN(S(=O)(=O)c2ccccc2F)CC1 [Compound 4-4, N-(4-(benzo[d]thiazol-2-yl)phenyl)-1-((2-fluorophenyl)sulfonyl)piperidine-4-carboxamide]
IC50 (Human sEH): 150 nM | IC50 (human FAAH enzyme): 1.3 nM

O=C(Nc1ccc(-c2nc3ccccc3s2)cc1)C1CCN(S(=O)(=O)c2ccccc2Br)CC1 [Compound 4-6, N-(4-(benzo[d]thiazol-2-yl)phenyl)-1-((2-bromophenyl)sulfonyl)piperidine-4-carboxamide]
IC50 (Human sEH): 24 nM | IC50 (human FAAH enzyme): 6.1 nM

Cc1ccccc1S(=O)(=O)N1CCC(C(=O)Nc2ccc(-c3nc4ccccc4s3)cc2)CC1 [Compound 4-7, N-(4-(benzo[d]thiazol-2-yl)phenyl)-1-(o-tolylsulfonyl)piperidine-4-carboxamide]
IC50 (Human sEH): 35 nM | IC50 (human FAAH enzyme): 9.6 nM

COc1ccccc1S(=O)(=O)N1CCC(C(=O)Nc2ccc(-c3nc4ccccc4s3)cc2)CC1 [Compound 4-8, N-(4-(benzo[d]thiazol-2-yl)phenyl)-1-((2-methoxyphenyl)sulfonyl)piperidine-4-carboxamide]
IC50 (Human sEH): 26 nM | IC50 (human FAAH enzyme): 80 nM

O=C(Nc1ccc(-c2nc3ccccc3s2)cc1)C1CCN(S(=O)(=O)c2cccc(F)c2)CC1 [Compound 4-9, N-(4-(benzo[d]thiazol-2-yl)phenyl)-1-((3-fluorophenyl)sulfonyl)piperidine-4-carboxamide]
IC50 (Human sEH): 1700 nM | IC50 (human FAAH enzyme): 13.4 nM

O=C(Nc1ccc(-c2nc3ccccc3s2)cc1)C1CCN(S(=O)(=O)c2cccc(Cl)c2)CC1 [Compound 4-10, N-(4-(benzo[d]thiazol-2-yl)phenyl)-1-((3-chlorophenyl)sulfonyl)piperidine-4-carboxamide]
IC50 (Human sEH): 2400 nM | IC50 (human FAAH enzyme): 7.2 nM

O=C(Nc1ccc(-c2nc3ccccc3s2)cc1)C1CCN(S(=O)(=O)c2cccc(Br)c2)CC1 [Compound 4-11, N-(4-(benzo[d]thiazol-2-yl)phenyl)-1-((3-bromophenyl)sulfonyl)piperidine-4-carboxamide]
IC50 (Human sEH): 1100 nM | IC50 (human FAAH enzyme): 51.6 nM

Cc1cccc(S(=O)(=O)N2CCC(C(=O)Nc3ccc(-c4nc5ccccc5s4)cc3)CC2)c1 [Compound 4-12, N-(4-(benzo[d]thiazol-2-yl)phenyl)-1-(m-tolylsulfonyl)piperidine-4-carboxamide]
IC50 (Human sEH): 940 nM | IC50 (human FAAH enzyme): 7 nM

COc1cccc(S(=O)(=O)N2CCC(C(=O)Nc3ccc(-c4nc5ccccc5s4)cc3)CC2)c1 [Compound 4-13, N-(4-(benzo[d]thiazol-2-yl)phenyl)-1-((3-methoxyphenyl)sulfonyl)piperidine-4-carboxamide]
IC50 (Human sEH): 620 nM | IC50 (human FAAH enzyme): 14.6 nM

O=C(Nc1ccc(-c2nc3ccccc3s2)cc1)C1CCN(S(=O)(=O)c2ccc(F)cc2)CC1 [Compound 4-14, N-(4-(benzo[d]thiazol-2-yl)phenyl)-1-((4-fluorophenyl)sulfonyl)piperidine-4-carboxamide]
IC50 (Human sEH): 1300 nM | IC50 (human FAAH enzyme): 77 nM

O=C(Nc1ccc(-c2nc3ccccc3s2)cc1)C1CCN(S(=O)(=O)c2ccc(Cl)cc2)CC1 [Compound 4-15, N-(4-(benzo[d]thiazol-2-yl)phenyl)-1-((4-chlorophenyl)sulfonyl)piperidine-4-carboxamide]
IC50 (Human sEH): 710 nM | IC50 (human FAAH enzyme): 260 nM

O=C(Nc1ccc(-c2nc3ccccc3s2)cc1)C1CCN(S(=O)(=O)c2ccc(Br)cc2)CC1 [Compound 4-16, N-(4-(benzo[d]thiazol-2-yl)phenyl)-1-((4-bromophenyl)sulfonyl)piperidine-4-carboxamide]
IC50 (Human sEH): 580 nM | IC50 (human FAAH enzyme): 185 nM

Cc1ccc(S(=O)(=O)N2CCC(C(=O)Nc3ccc(-c4nc5ccccc5s4)cc3)CC2)cc1 [Compound 4-17, N-(4-(benzo[d]thiazol-2-yl)phenyl)-1-tosylpiperidine-4-carboxamide]
IC50 (Human sEH): 370 nM | IC50 (human FAAH enzyme): > 10000 nM

COc1ccc(S(=O)(=O)N2CCC(C(=O)Nc3ccc(-c4nc5ccccc5s4)cc3)CC2)cc1 [Compound 4-18, N-(4-(benzo[d]thiazol-2-yl)phenyl)-1-((4-methoxyphenyl)sulfonyl)piperidine-4-carboxamide]
IC50 (Human sEH): 84 nM | IC50 (human FAAH enzyme): > 10000 nM

O=C(Nc1ccc(-c2nc3ccccc3s2)cc1)C1CCN(S(=O)(=O)c2ccc(F)cc2F)CC1 [Compound 4-19, N-(4-(benzo[d]thiazol-2-yl)phenyl)-1-((2,4-difluorophenyl)sulfonyl)piperidine-4-carboxamide]
IC50 (Human sEH): 195 nM | IC50 (human FAAH enzyme): 11.4 nM

O=C(Nc1ccc(-c2nc3ccccc3s2)cc1)C1CCN(S(=O)(=O)c2ccc(Br)cc2Br)CC1 [Compound 4-21, N-(4-(benzo[d]thiazol-2-yl)phenyl)-1-((2,4-dibromophenyl)sulfonyl)piperidine-4-carboxamide]
IC50 (Human sEH): 36 nM | IC50 (human FAAH enzyme): 10 nM

Cc1ccc(S(=O)(=O)N2CCC(C(=O)Nc3ccc(-c4nc5ccccc5s4)cc3)CC2)c(C)c1 [Compound 4-22, N-(4-(benzo[d]thiazol-2-yl)phenyl)-1-((2,4-dimethylphenyl)sulfonyl)piperidine-4-carboxamide]
IC50 (Human sEH): 29.2 nM | IC50 (human FAAH enzyme): 5.5 nM

COc1ccc(S(=O)(=O)N2CCC(C(=O)Nc3ccc(-c4nc5ccccc5s4)cc3)CC2)c(OC)c1 [Compound 4-23, N-(4-(benzo[d]thiazol-2-yl)phenyl)-1-((2,4-dimethoxyphenyl)sulfonyl)piperidine-4-carboxamide]
IC50 (Human sEH): 180 nM | IC50 (human FAAH enzyme): 36.2 nM

O=C(Nc1ccc(-c2nc3ccccc3s2)cc1)C1CCN(S(=O)(=O)c2cc(F)cc(F)c2)CC1 [Compound 4-24, N-(4-(benzo[d]thiazol-2-yl)phenyl)-1-((3,5-difluorophenyl)sulfonyl)piperidine-4-carboxamide]
IC50 (Human sEH): 1100 nM | IC50 (human FAAH enzyme): > 10000 nM

Cc1cc(C)cc(S(=O)(=O)N2CCC(C(=O)Nc3ccc(-c4nc5ccccc5s4)cc3)CC2)c1 [Compound 4-25, N-(4-(benzo[d]thiazol-2-yl)phenyl)-1-((3,5-dimethylphenyl)sulfonyl)piperidine-4-carboxamide]
IC50 (Human sEH): 3600 nM | IC50 (human FAAH enzyme): > 10000 nM

O=C(Nc1ccc(-c2nc3ccccc3s2)cc1)C1CCN(S(=O)(=O)c2c(F)cc(F)cc2F)CC1 [Compound 4-26, N-(4-(benzo[d]thiazol-2-yl)phenyl)-1-((2,4,6-trifluorophenyl)sulfonyl)piperidine-4-carboxamide]
IC50 (Human sEH): 6600 nM | IC50 (human FAAH enzyme): 250 nM

O=C(Nc1ccc(-c2nc3ccccc3s2)cc1)C1CCN(S(=O)(=O)c2c(Cl)cc(Cl)cc2Cl)CC1 [Compound 4-27, N-(4-(benzo[d]thiazol-2-yl)phenyl)-1-((2,4,6-trichlorophenyl)sulfonyl)piperidine-4-carboxamide]
IC50 (Human sEH): 1300 nM | IC50 (human FAAH enzyme): 270 nM

Cc1cc(C)c(S(=O)(=O)N2CCC(C(=O)Nc3ccc(-c4nc5ccccc5s4)cc3)CC2)c(C)c1 [Compound 4-28, N-(4-(benzo[d]thiazol-2-yl)phenyl)-1-(mesitylsulfonyl)piperidine-4-carboxamide]
IC50 (Human sEH): 790 nM | IC50 (human FAAH enzyme): 84 nM

CC(C)c1cc(C(C)C)c(S(=O)(=O)N2CCC(C(=O)Nc3ccc(-c4nc5ccccc5s4)cc3)CC2)c(C(C)C)c1 [Compound 4-29, N-(4-(benzo[d]thiazol-2-yl)phenyl)-1-((2,4,6-triisopropylphenyl)sulfonyl)piperidine-4-carboxamide]
IC50 (Human sEH): 840 nM | IC50 (human FAAH enzyme): 2230 nM

O=C(Nc1ccc(-c2nc3ccccc3s2)cc1)C1CCN(S(=O)(=O)c2c(F)c(F)c(F)c(F)c2F)CC1 [Compound 4-30, N-(4-(benzo[d]thiazol-2-yl)phenyl)-1-((perfluorophenyl)sulfonyl)piperidine-4-carboxamide]
IC50 (Human sEH): 2670 nM | IC50 (human FAAH enzyme): > 10000 nM
